Laboratory results published in patent publication US20030203908A1, “Dihydrofolate reductase inhibitors” (priority 2000, published 2003).
Converted amounts (≈) assume the structure as drawn.

Assays:
[1] = test system: A16V.S108T mutant (mut) of DHFR from Plasmodium falciparum; assay: biochemical; details: resistance factor
Method: (§1) For determination of the Ki values of a number of synthesized analogues, the assay reactions were initiated with affinity-purified enzyme (^˜0.005-0.01 U ml^−1), and the initial velocities in the presence of varying concentrations of inhibitors were analysed by non-linear least square fit using Kaleidagraph™ software.

[2] = target: T1, A16V.S108T mutant (mut) of DHFR from Plasmodium falciparum (Plasmodium falciparum, UniProt A7UD81, A16V/S108T); assay: biochemical
T1 construct: The Dihydrofolate Reductase Domain of Plasmodium falciparum Thymidylate Synthase-Dihydrofolate Reductase; made in house
T1 sequence (A7UD81 1-231 A16V/S108T): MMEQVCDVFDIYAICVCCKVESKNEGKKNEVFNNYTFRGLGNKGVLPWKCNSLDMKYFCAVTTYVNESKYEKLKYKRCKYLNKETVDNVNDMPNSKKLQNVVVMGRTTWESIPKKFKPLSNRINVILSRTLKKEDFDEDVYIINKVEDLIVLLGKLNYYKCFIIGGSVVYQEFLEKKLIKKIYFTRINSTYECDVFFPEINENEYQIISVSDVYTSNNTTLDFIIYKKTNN
Method: as §1

[3] = target: T2, wild-type (wt) DHFR from Plasmodium falciparum (Plasmodium falciparum, UniProt P13922, N108S/R59C); assay: Inhibition of wild-type pfDHFR (spectrophotometric, Ki); type: biochemical; details: Ki(wt) nM;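 also: Affinity-purified enzyme, initial reaction rates measured across a range of inhibitor concentrations, Ki obtained by nonlinear least-squares fitting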
T2 construct: The Dihydrofolate Reductase Domain of Plasmodium falciparum Thymidylate Synthase-Dihydrofolate Reductase; made in house
T2 sequence (P13922 10-228 R59C/N108S): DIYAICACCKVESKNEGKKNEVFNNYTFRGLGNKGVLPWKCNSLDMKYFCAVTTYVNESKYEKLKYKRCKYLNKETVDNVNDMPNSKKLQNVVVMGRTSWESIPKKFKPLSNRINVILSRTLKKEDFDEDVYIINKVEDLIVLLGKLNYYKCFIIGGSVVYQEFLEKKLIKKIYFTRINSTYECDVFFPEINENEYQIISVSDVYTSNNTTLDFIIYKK
Method: as §1

human DHFR [4] = assay: Inhibition of human DHFR (I50-derived Ki); type: biochemical;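 also: recombinant human DHFR expressed in E. coli and purified by methotrexate affinity chromatography, enzyme activity followed spectrophotometrically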
Method: (§2) Folic acid and NADPH, were purchased from Sigma. Dihydrofolate was prepared from folic acid dithionate reduction. Methotrexate (MTX) was from Lederle Laboratories. MTX sepharose CL-6B was prepared according to the protocol described by Dann. et al. IPTG came from Boehringer Manheim. The expression system used for recombinant human DHFR production, which includes the plasmid PB-E1/RB SII, SphI-HDHFR expressed in E. coli M15, was supplied by Santi, D. V (Department of Biochemistry and Biophysics and Department of Pharmaceutical Chemistry, University of California). Recombinant T. Cruzi DHFR-TS was produced using the system pET 11c with the insertion of the complete ORF of the gene tc-dhfrts. The resulting plasmid was called pET DT.
(§3) Human and T.cruzi DHFR were produced using inducible expression systems. For human DHFR, fresh overnight cultures of E. coli M15, transformed with the plasmid, pB-E1/RB SII, SphI-HDHFR, were grown in LB and 0.1 mg/ml ampicillin medium at 28° C. For T.cruzi DHFR-TS, cultures of E. coli, BL21 (DE3) transformed with the plasmid pETDT system were grown at 37° C. The same purification protocol was used for both systems. When OD600 was at 0.8, cells pellets were collected by centrifugation, suspended in 50 ml of LB medium, containing 0.1 mg/ml of ampicillin. 10 ml of this preinocule was added to 2 litres of LB medium. Cultures were shaken at 28° C. or 37° C. (for human and T. cruzi DHFR respectively) and induction with IPTG ImM was performed when OD600 reached 0.8. After IPTG induction, cells were grown overnight in a shaker at 28° C. or 5 hours at 28° C. or 37° C. (for human and T. cruzi DHFR respectively) and then harvested by centrifugation.
(§4) Cell pellets were suspended in sonication buffer (2× TES DHFR:TES 100 mM, 2-mercaptoethanol 150 mM, EDTA 2 mM pH=7) containing protease inhibitors.
(§5) Crude extract was circulated through the MTX-Sepharose column at 4° C. at a flow rate of 0.2 ml/min until the protein was bound to the resin. The column was washed with an excess of buffer B (KH2PO410 mM pH 7, KC1 1M). Protein was eluted at 0.2 min/ml with an elution buffer (100 mM TES, 10 mM DTT, 2 mM EDTA, DHF 8.5 mM), the elution profile was collected in 1 ml fractions using a Pharmacia LKB Frac 200 collector. Finally, the protein was desalted using molecular size exclusion chromatography in a Pharmacia G-25 column. Fractions containing DHFR activity were pooled and concentrated by ultrafiltration using centripreps Amicon.
(§6) The purity of the protein preparation was assessed by detection of a single band of the correct molecular weight stained with coomasie blue following a 12% SDS-PAGE. Protein concentration was determined by the method of Bradford using a BSA as a standard. DHFR activity was measured spectrophotometrically by monitoring the decrease in absorbance at 340 mm. […] One unit of enzyme, is defined as the amount of enzyme which produces 1 nmol of product per min using ε of 12300M^−1 at 340 nm.
(§7) Inhibition of dihydrofolate reductases by 1,2-dihydro-1,3,5 triazines was analysed with T. cruzi and human DHFR.
(§8) DHFR assays contained 30 mM dihydrofolate, 0.1 mM NADPH, 50 mM TES buffer pH 7, 75 mM 2-mercaptoethanol and specified amounts of inhibitors. The reaction was initiated by addition of 2.8 or 2.3 units of T. cruzi and human, respectively, and monitored at 340 nm.
(§9) Selective inhibition of dihydrofolate reductase by 1,2-dihydro-1,3,5-triazines was analysed with T. cruzi and human DHFR. DHFR assays contained 30 μM dihydrofolate, 0.1 mM NADPH, 50 mM TES buffer pH 7, 75 mM β-mercaptoethanol and specified amounts of inhibitors. The reaction was initiated by addition of 2.8 or 2.3 units of T. cruzi and human enzyme, respectively, and monitored at 340 nm. […] KiI 50=[I]0.5/((1+[S])/Km)

human DHFR [5] = target: T3, human DHFR (Homo sapiens, UniProt P00374); assay: Inhibition of human DHFR (I50-derived Ki); type: biochemical; details: Human Ki (I50)(nM);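 also: recombinant human DHFR expressed in E. coli and purified by methotrexate affinity chromatography, enzyme activity followed spectrophotometrically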
T3 construct: made in house; host or cells: E. coli M15
T3 sequence (P00374 1-187): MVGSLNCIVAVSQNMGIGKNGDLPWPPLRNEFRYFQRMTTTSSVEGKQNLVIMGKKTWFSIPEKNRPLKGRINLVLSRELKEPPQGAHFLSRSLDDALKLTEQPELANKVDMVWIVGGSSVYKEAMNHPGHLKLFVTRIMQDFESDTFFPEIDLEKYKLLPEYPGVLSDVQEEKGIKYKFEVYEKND
Method: as §2, §3, §4, §5, §6, §7, §8, §9

[6] = target: T4, DHFR-TS from Trypanosoma cruzi (Trypanosoma cruzi, UniProt Q27793); assay: Inhibition of T. cruzi DHFR-TS (I50-derived Ki);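 as to all read-outs here: enzymes were recombinant T. cruzi DHFR-TS and human DHFR, both expressed in E. coli and purified on a methotrexate affinity column, with dihydrofolate and NADPH as substrates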; type: biochemical; details: for Selectivity: human Ki / T. cruzi Ki
T4 construct: pET 11c with the insertion of the complete ORF of the gene tc-dhfrts; made in house; host or cells: E. coli BL21 (DE3)
T4 sequence (Q27793 whole entry): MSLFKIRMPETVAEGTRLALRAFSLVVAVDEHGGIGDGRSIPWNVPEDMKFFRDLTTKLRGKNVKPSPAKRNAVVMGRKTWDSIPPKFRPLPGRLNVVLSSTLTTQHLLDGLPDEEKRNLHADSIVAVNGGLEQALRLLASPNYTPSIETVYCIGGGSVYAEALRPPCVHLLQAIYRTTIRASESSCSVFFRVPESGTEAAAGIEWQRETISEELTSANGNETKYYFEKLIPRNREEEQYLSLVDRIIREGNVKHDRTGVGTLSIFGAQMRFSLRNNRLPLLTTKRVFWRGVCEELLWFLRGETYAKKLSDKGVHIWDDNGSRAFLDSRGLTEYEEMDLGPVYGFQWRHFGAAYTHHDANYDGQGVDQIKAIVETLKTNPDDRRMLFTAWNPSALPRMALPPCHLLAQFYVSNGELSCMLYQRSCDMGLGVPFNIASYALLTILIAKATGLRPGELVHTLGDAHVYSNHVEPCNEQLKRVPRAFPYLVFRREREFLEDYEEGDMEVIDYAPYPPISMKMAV
Method: DHFR activity was measured spectrophotometrically by monitoring the decrease in absorbance at 340 mm.
as §7, §8
Selective inhibition of dihydrofolate reductase by 1,2-dihydro-1,3,5-triazines was analysed with T. cruzi and human DHFR. DHFR assays contained 30 μM dihydrofolate, 0.1 mM NADPH, 50 mM TES buffer pH 7, 75 mM β-mercaptoethanol and specified amounts of inhibitors. The reaction was initiated by addition of 2.8 or 2.3 units of T. cruzi and human enzyme, respectively, and monitored at 340 nm.
KiI 50=[I]0.5/((1+[S])/Km)

[7] = test system: wild-type (TM4/8.2) strain of P. falciparum; assay: microbe, parasite or virus in culture; type: cell-based, Plasmodium falciparum; details: Plasmodium falciparum; wild-type strain TM4/8.2
Method: Mol. Biochem. Parasitol. […] Science, 1976, 193, 673-675]. In vitro antimalarial activity was determined by using [^3H]-hypoxanthine incorporation method [Desjardins, R. E.; Canfield, C. J.; Haynes, J. D.; Chulay, J. D. Quantitative assessment of antimalarial activity in vitro by a semiautomated microdilution technique. Antimicrob Agents Chemother. 1979, 16, 710-718]. The drugs were initially dissolved in DMSO and diluted with the culture media. Aliquots (25 μl) of drug solution of different concentrations was placed in 96-well plate together with 200 μl of 1.5% cell suspension of parasitized erythrocytes containing 1-2% parasitemia. Final concentration of DMSO was 0.1% where there was no effect on the parasite growth. The mixtures were incubated in a 3% CO2 incubator at 37° C. After 24 h of incubation, 25 μl (0.25 μCi) of [^3H]-hypoxanthine were added to each well. The mixtures were further incubated under the same condition for 18-24 h. DNA of parasites was harvested onto glass filter paper (Unifilter, Packard, USA). The filters were dried and liquid scintillation fluid was added for radioactivity measurement in a 6-probe liquid scintillation-counter (Packard, USA).

[8] = test system: P. falciparum 3D7 (wild-type strain); assay: In vitro inhibition of P. falciparum 3D7; type: cell-based, Plasmodium falciparum; details: Plasmodium falciparum, 3D7 strain, read-out: Pf-3D7 ED50
[9] = test system: P. falciparum FCR3 (resistant strain containing the A16V.S108T DHFR mutant); assay: In vitro inhibition of P. falciparum FCR3; type: cell-based, Plasmodium falciparum; details: Plasmodium falciparum; in vitro, FCR3 strain; read-out: Pf-FCR3 ED50

| SMILES | Ki(mut)/Ki(wt) [1] | Ki [2] | Ki [3] | Ki (human)/Ki (P. falc. mut) (human DHFR [4]) | Ki (human)/Ki (P. falc. wt) (human DHFR [4]) | Ki (human)/Ki (T. cruzi) (human DHFR [4]) | Ki (human DHFR [5]; human DHFR) | Ki [6] | Selectivity [6] | IC50 [7] | IC50 [8] | IC50 [9] | Ki (human DHFR [5]) |
| --- | --- | --- | --- | --- | --- | --- | --- | --- | --- | --- | --- | --- | --- |
| CCCCOc1ccc(C2N=C(N)N=C(N)N2c2ccc(OCc3ccccc3)cc2)cc1 (stereo not shown) [1-p-benzyloxyphenyl-2-p-n-butoxyphenyl-4,6-diamino-1,2-dihydro-1,3,5-triazine] | 8.2 | 6.6 ± 0.6 nM | 0.8 ± 0.1 nM | 31 | 253 | 4.1 | 203 nM | 49 nM | 4.1 | 384 nM |  |  |  |
| COc1ccc(Oc2cccc(C3N=C(N)N=C(N)N3c3ccc(Cl)cc3)c2)cc1 (stereo not shown) [(Ia) R2=3-(4-methoxyphenoxyl)phenyl] | 9.4 | 6.6 nM | 0.7 nM |  |  |  | 830 nM | 48 nM | 17 | 2880 nM | 5.19 µg/mL (≈ 12.3 µM) | 1.25 µg/mL (≈ 2.96 µM) |  |
| CC(C)(C)c1ccc(Oc2cccc(C3N=C(N)N=C(N)N3c3ccc(Cl)cc3)c2)cc1 (stereo not shown) [(Ia) R2=3-(4-t-butylphenoxy)phenyl] | 5.8 | 9.9 ± 1.5 nM | 1.7 nM |  |  |  | 770 nM | 112 nM | 7 | 4120 nM | 0.75 µg/mL (≈ 1.67 µM) | 0.26 µg/mL (≈ 0.58 µM) |  |
| NC1=NC(c2ccc(-c3ccccc3)cc2)N(c2ccc(Cl)cc2)C(N)=N1 (stereo not shown) [(Ia) R2=4-biphenyl] | 6.5 | 8.5 nM | 1.3 ± 0.1 nM |  |  |  |  |  |  | 621 nM | 2.2 µg/mL (≈ 5.85 µM) | 0.68 µg/mL (≈ 1.81 µM) |  |
| Cl.NC1=NCN(c2ccc(Cl)cc2)C(N)=N1 [(Ia) R2=H, 1-(4′-Chlorophenyl)-4,6-diamino-1,2-dihydro-1,3,5-triazine hydrochloride] | 26 | 649 ± 77 nM | 24.4 ± 4.3 nM | 1.9 | 49.7 | 75.7 |  | 16 nM | 76 | 952 nM | 0.04 µg/mL | 0.13 µg/mL | 1210 nM |
| NC1=NC(c2cccc(OCc3ccccc3)c2)N(c2ccc(Cl)cc2)C(N)=N1 (stereo not shown) [(Ia) R2=m-benzyloxyphenyl] | 8.8 | 6.2 nM | 0.7 nM |  |  |  |  |  |  | 832 nM | 0.18 µg/mL (≈ 0.443 µM) | 0.62 µg/mL (≈ 1.53 µM) |  |
| NC1=NC(c2cccc(O)c2)N(c2ccc(Cl)cc2)C(N)=N1 (stereo not shown) [(Ia) R2=m-hydroxyphenyl, 1-p-chlorophenyl-2-m-hydroxyphenyl-4,6-diamino-1,2-dihydro-1,3,5-triazine] | 20.6 | 123 ± 13 nM | 6 ± 0.4 nM | 13.7 | 280 | 56 | 1680 nM |  |  | 48 nM |  |  |  |
| NC1=NC(c2cccc(Oc3ccccc3)c2)N(c2ccc(Cl)cc2)C(N)=N1 (stereo not shown) [(Ia) R2=m-phenoxyphenyl, 1-p-chlorophenyl-2-m-phenoxyphenyl-4,6-diamino-1,2-dihydro-1,3,5-triazine] | 5.4 | 2.7 nM | 0.5 nM |  |  |  | 190 nM | 21 nM | 9 | 367 nM | 0.28 µg/mL (≈ 0.715 µM) | 0.32 µg/mL (≈ 0.817 µM) |  |
| NC1=NC(c2ccc(OCc3ccccc3)cc2)N(c2ccc(Cl)cc2)C(N)=N1 (stereo not shown) [(Ia) R2=p-benzyloxyphenyl] | 7.3 | 4.4 nM | 0.6 nM |  |  |  | 1110 nM | 13 nM | 85 | 107 nM | 0.26 µg/mL (≈ 0.641 µM) |  |  |
| CCOc1ccc(C2N=C(N)N=C(N)N2c2ccc(Cl)cc2)cc1 (stereo not shown) [(Ia) R2=p-ethoxyphenyl, 1-p-chlorophenyl-2-p-ethoxyphenyl-4-6-diamino-1,2-dihydro-1,3,5-triazine] | 24.3 | 36 ± 6 nM | 1.5 ± 0.2 nM | 48 | 1153 | 24.7 | 1730 nM | 70 nM | 25 | 181 nM |  |  |  |
| NC1=NC(c2ccc(F)cc2)N(c2ccc(Cl)cc2)C(N)=N1 (stereo not shown) [(Ia) R2=p-fluorophenyl] | 15.1 | 130 ± 17 nM | 8.6 ± 1.4 nM | 81 | 1227 | 10.4 | 10600 nM | 1010 nM | 10 | 359 nM |  |  |  |
| CC(C)c1ccc(C2N=C(N)N=C(N)N2c2ccc(Cl)cc2)cc1 (stereo not shown) [(Ia) R2=p-isopropylphenyl, 1-p-chlorophenyl-2-p-isopropylphenyl-4,6-diamino-1,2-dihydro-1,3,5-triazine] | 8.0 | 15.2 ± 1.6 nM | 1.9 ± 0.6 nM | 661 | 5289 | 167 | 10000 nM | 60 nM | 167 | 973 nM |  |  |  |
| COc1ccc(C2N=C(N)N=C(N)N2c2ccc(Cl)cc2)cc1 (stereo not shown) [(Ia) R2=p-methoxyphenyl, 1-p-chlorophenyl-2-p-methoxyphenyl-4,6-diamino-1,2-dihydro-1,3,5-triazine] | 11.3 | 129 ± 25 nM | 11.4 ± 1.5 nM | 42.9 | 485 | 212 | 5530 nM | 26 nM | 212 | 424 nM |  |  |  |
| NC1=NC(c2ccc(Oc3ccccc3)cc2)N(c2ccc(Cl)cc2)C(N)=N1 (stereo not shown) [(Ia) R2=p-phenoxyphenyl, 1-p-chlorophenyl-2-p-phenoxyphenyl-4,6-diamino-1,2-dihydro-1,3,5-triazine] | 9.5 | 3.8 nM | 0.4 nM |  |  |  | 1130 nM | 3 nM | 376 | 121 nM | 0.07 µg/mL (≈ 0.179 µM) | 0.2 µg/mL (≈ 0.51 µM) |  |
| CC(C)(C)c1ccc(Oc2cccc(C3N=C(N)N=C(N)N3c3cccc(Cl)c3)c2)cc1 (stereo not shown) [(Ib) R2=3-(4-t-butylphenoxy)phenyl] | 0.7 | 5.6 ± 0.9 nM | 7.7 ± 0.5 nM |  |  |  |  |  |  | 5040 nM | > 0.3 µg/mL | 0.47 µg/mL (≈ 1.05 µM) |  |
| NC1=NC(c2cccc(OCc3ccccc3)c2)N(c2cccc(Cl)c2)C(N)=N1 (stereo not shown) [(Ib) R2=3-benzyloxyphenyl] | 1.4 | 3.2 ± 0.2 nM | 2.3 ± 0.5 nM |  |  |  | 46 nM | 12 nM | 3.8 | 3970 nM | 0.45 µg/mL (≈ 1.11 µM) | 0.019 µg/mL (≈ 0.0468 µM) |  |
| NC1=NC(c2ccc(O)cc2)N(c2cccc(Cl)c2)C(N)=N1 (stereo not shown) [(Ib) R2=4-hydroxyphenyl] | 1.0 | 57.7 ± 7.5 nM | 59.1 ± 1 nM | 0.97 | 0.95 | 1.17 | 56 nM |  |  | 3070 nM |  |  |  |
| NC1=NCN(c2ccc(OCc3ccccc3)cc2)C(N)=N1 [R2=H, X=BnO, Y=H] | 1.3 | 28.6 ± 2.2 nM | 22.4 ± 1.3 nM | 1.54 | 1.96 | 4.44 | 44 nM | 10 nM | 4.4 | 690 nM |  |  |  |
| NC1=NCN(c2cccc(Cc3ccccc3)c2)C(N)=N1 [R2=H, X=H, Y=Bn] | 0.6 | 6 ± 0.1 nM | 9.4 ± 0.4 nM | 11 | 7.0 | 2.27 | 66 nM | 29 nM | 2.3 | 403 nM |  |  |  |
